# Assay results as given in patent US4720486A, “Method of inhibiting vertebrate collagenase activity using peptide hydroxamic acid derivatives” (Monsanto Company, priority 1987, dated 1988).
# Where a SMILES comes first, the peptide text is derived from it. The star is where a group is joined. Cbz = O=C(OCc1ccccc1)*; NHOH = ON*
# Assays:
# Type in all cases: biochemical
# [1] = molecular target: T1, human skin fibroblast collagenase (Homo sapiens, UniProt P03956); assay: Collagenase inhibition test (14C-collagen assay), skin fibroblast collagenase; conditions: 0.50 M NaCl, 0.01 M CaCl2, 0.05 M Tris, pH 7.5, 35° C.; Dixon plot, single substrate concentration 10 μM collagen
# T1 construct: active collagenase isolated by this method consisted of two bands, a major species with molecular weight 45,000; host or cells: normal human skin fibroblasts CRL 1224 in SK Hepatoma conditioned medium
# T1 sequence (P03956 100-469): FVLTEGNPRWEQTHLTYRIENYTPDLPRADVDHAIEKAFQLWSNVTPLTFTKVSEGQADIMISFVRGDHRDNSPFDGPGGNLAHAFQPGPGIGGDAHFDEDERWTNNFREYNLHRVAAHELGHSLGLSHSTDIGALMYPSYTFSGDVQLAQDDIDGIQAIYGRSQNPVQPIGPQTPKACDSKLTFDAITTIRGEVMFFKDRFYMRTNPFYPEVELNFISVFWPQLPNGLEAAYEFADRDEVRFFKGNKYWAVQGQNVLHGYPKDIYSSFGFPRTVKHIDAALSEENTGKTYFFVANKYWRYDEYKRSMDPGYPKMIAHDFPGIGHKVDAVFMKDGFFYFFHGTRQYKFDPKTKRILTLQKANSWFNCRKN
# Protocol: (§1) ^14 C-collagen was prepared by reductive methylation of calf skin collagen at 4° C. using ^14 C-formaldehyde and sodium borohydride. Calf skin collagen (Sigma) was dissolved at 7.5 mg/ml in 60 ml of 0.10M acetic acid and dialyzed at 4° C. against 0.15M potassium phosphate, pH 7.6, for eight hours followed by dialysis overnight against 0.4M NaCl. The collagen solution was then adjusted to pH 9.0 by addition of 0.50M sodium borate and then 1 mCi of ^14 C-formaldehyde (10 mCi/mmol) was added. After one minute, 0.10M sodium borohydride (660 μl in 1.3 mM NaOH) was added in four aliquots, followed by an additional aliquot (340 μl) 30 minutes later. The solution was then dialyzed exhaustively against 0.01M acetic acid, centrifuged to remove particulates and stored frozen in 1 ml aliquots. Specific activity was 1.3×10^6 DPM/mg. Unlabeled collagen was prepared in the same way, stored frozen and mixed with labeled collagen at a ratio of 9 to 1. For assay, the diluted ^14 C-collagen was dialyzed 6-8 hours at 4° C. against 0.15M potassium phosphate, pH 7.6, followed by dialysis overnight against 0.4M sodium chloride. This solution was centrifuged to remove any undissolved collagen and stored at 4° C.
# (§2) Collagenase asays were carried out according to the method of Terato et al., Biochim. Biophys. Acta 445, 753 (1976). They were performed in 1.5 ml polypropylene microfuge tubes. Each assay tube contained 50 μl of ^14 C-collagen solution (4 mg/ml) and 50 μl of 1.0M glucose, 0.10M Tris, 0.4M NaCl, 0.02M CaCl2, pH 7.5. This solution was incubated for ten minutes at 35° C. and the reaction initiated by the addition of 100 μl of enzyme solution. Those samples containing procollagenase were first activated by incubating 100 μl aliquots with 1-5 μl of 10 mg/ml trypsin (in 1 mM HCl) for 20 minutes at 23° C., followed by 20 μl of 5 mg/ml soybean trypsin inhibitor (in 0.05M Tris, 0.01M CaCl2, pH 7.5) to quench the trypsin activity. The collagenase assay was terminated after 30 minutes at 35° C. by the addition of 20 μl of 0.08M 1,10-phenanthroline in 50% (v/v) dioxane and the incubation was continued for one hour at 35° C. to denature the collagen digestion products. Each sample was cooled for 15 minutes at 23° and 200 μl of dioxane was added with vigorous vortexing to precipitate uncleaved collagen. Following centrifugation at 11,000 RPM, 350 μl aliquots were added to 5.0 ml of Pico-Fluor 30 to determine radioactivity.
# (§3) Collagenase activities were measured in the presence of the test compounds by adding an aliquot of the compound (0-85 μl) and buffer to 100 μl of glucose-collagen solution to give a total volume of 185 μl, incubating at 35° C. for 10 minutes and then initiating the reaction with 15 μl of purified collagenase. The rest of the assay was performed as described above.
# (§4) To determine the mechanism of inhibition, the following equation was used [(Holmquist and Vallee, J. Biol. Chem. 249, 4601 (1974)] [formula] where Ao is the activity in the absence of inhibitor and AI is the activity in the presence of inhibitor.
# One vial of normal skin fibroblasts was purchased (American Type Cell Culture CRL 1224), thawed at 37° C. and transferred to a 150 cm^2 T-flask. Fifty ml of DMEM containing 10% FBS were added and the cells incubated for one week at 37° C. under 5% CO2. The cells were then split into three T-flasks. When the flasks became overgrown with cells, normal media was replaced with SK Hepatoma conditioned media and changed twice a week. This media was stored and used as the starting material for collagenase isolation.
# The other test compounds were assumed to inhibit by the same mechanism so that all studies were performed at only a single substrate concentration, 10μM, and the KI values were determined from the intersection with the abscissa.
# [2] = molecular target: T2, human synovial collagenase (Homo sapiens, UniProt P03956); assay: Collagenase inhibition test (14C-collagen assay), synovial collagenase; conditions: for Ki: 0.50 M NaCl, 0.01 M CaCl2, 0.05 M Tris, pH 7.5, 35° C., Dixon plot, single substrate concentration 10 μM collagen
# T2 construct: endogenous in cells; host or cells: primary human synovial cells from a knee synovectomy, stimulated with SK Hepatoma conditioned medium
# T2 sequence (P03956 100-469): T1 sequence (P03956 100-469)
# Protocol: as §1, §2, §3, §4
# Approximately 2.0 gms of synovial tissue were obtained from a patient undergoing synovectomy of the knee. All procedures were carried out in a laminar flow hood under aseptic conditions. The tissue was placed in 250 ml McCoys 5A (modified) medium containing 200 μg/ml gentamicin and stored overnight at 0° C. The next day the tissue was warmed to room temperature, cut into 0.25 cm pieces and added to 11 ml of serum-free DMEM, containing 4 mg/ml clostridial collagenase (Worthington). After incubating the mixture for one hour at room temperature, an equal volume of 0.25% trypsin was added and the incubation continued for an additional thirty minutes. The cells were spun down at 400×g for ten minutes, resuspended in 20 ml trypsin/EDTA (Gibco 10×) and incubated for 30 minutes with occasional mixing by drawing through a 25 ml pipet. The suspension was centrifuged and the pellet was washed two times with PBS:DMEM (1:1) containing 10% FBS. […]
# [3] = molecular target: T3, human collagenase isolated from skin fibroblasts and synovial cells (Homo sapiens, UniProt P03956); assay: Collagenase inhibition, (enzyme source not distinguished)
# T3 construct: endogenous in cells; host or cells: human skin fibroblasts (CRL 1224) or primary human synovial cells; enzyme purified from conditioned medium
# T3 sequence (P03956 100-469): T1 sequence (P03956 100-469)
# Protocol: as §1, §2
# as §3, with “above. […]” for “above.”
Compound,Ki [1] [µM],Ki [2] [µM],other results
NCC(=O)NO [Gly--NHOH],> 1000,18000,–
CC(NC(=O)OCc1ccccc1)C(=O)NCC(=O)NO (centres unmarked) [Z--Ala--Gly--NHOH],1300,2600,–
O=C(CNC(=O)OCc1ccccc1)NO [Z--Gly--NHOH],600,960,–
O=C(CNC(=O)CNC(=O)OCc1ccccc1)NO [Z--Gly--Gly--NHOH] (Cbz-Gly-Gly-{NHOH}),3000,2000,–
"CC(C)CC(C(=O)NO)C(=O)N[C@@H](C)C(=O)NCC(N)=O (stereo partly drawn) [Zincov, 2-(N-Hydroxycarboxamido)-4-methylpentanoyl-L-Ala-glycine amide]",–,–,Ki ([3]; human collagenase): 2000 µM

# The next lines start with results.
Ki [1] [µM],Ki [2] [µM],Compound,other results
300,330,CC(C)C[C@H](NC(=O)OCc1ccccc1)C(=O)N[C@@H](CC(C)C)C(=O)NCC(=O)NO [Z--Leu--Leu--Gly--NHOH] (Cbz-Leu-Leu-Gly-{NHOH}),–
150,100,O=C(CNC(=O)C(Cc1ccccc1)NC(=O)OCc1ccccc1)NO (centres unmarked) [Z--Phe--Gly--NHOH],–
150,200,CSCCC(NC(=O)OCc1ccccc1)C(=O)NCC(=O)NO (centres unmarked) [Z--Met--Gly--NHOH],–
40,47,"CC(C)C[C@H](NC(=O)[C@@H]1CCCN1C(=O)OCc1ccccc1)C(=O)NCC(=O)NO [Z--Pro--Leu--Gly--NHOH, N-Benzyloxycarbonyl-L-prolyl-L-leucylglycine Hydroxamic Acid] (Cbz-Pro-Leu-Gly-{NHOH})","mechanism of inhibition (Dixon plot) ([2]; three substrate concentrations, 3.9 μM, 1.3 μM and 0.7 μM collagen, FIG. 1): non-competitive inhibition; times more active than Zincov ([3]; estimated, ratio of KI values): 50 to 100 times; KI ([3]; human collagenase): 40 µM; times more effective than the corresponding Z--Leu--Leu--Gly--NHOH analog ([3]; ratio of KI values): ten"
480,170,CC(C)CC(NC(=O)OCc1ccccc1)C(=O)NCC(=O)NO (centres unmarked) [Z--Leu--Gly--NHOH],–
